Experimental data taken from ChEMBL document CHEMBL2040811, “Synthesis and biological evaluation of new homocamptothecin analogs” (Eur J Med Chem, 2012).
Active and inactive are the calls of the source. The calls are words filed in the database; no cut-off is given here.

Key:
[1] = tested on: A549; assay: Cytotoxicity against human A549 after 72 hrs by SRB assay; assay type: functional, cell-based; conditions: A549, 72 h
[2] = molecular target: T1, DNA topoisomerase 1 (Homo sapiens) (UniProt P11387); assay: Inhibition of topo 1-mediated relaxation of supercoiled pBR322 at 10 to 100 uM after 30 mins using ethidium bromide by agarose-gel electrophoresis
T1 sequence (whole entry): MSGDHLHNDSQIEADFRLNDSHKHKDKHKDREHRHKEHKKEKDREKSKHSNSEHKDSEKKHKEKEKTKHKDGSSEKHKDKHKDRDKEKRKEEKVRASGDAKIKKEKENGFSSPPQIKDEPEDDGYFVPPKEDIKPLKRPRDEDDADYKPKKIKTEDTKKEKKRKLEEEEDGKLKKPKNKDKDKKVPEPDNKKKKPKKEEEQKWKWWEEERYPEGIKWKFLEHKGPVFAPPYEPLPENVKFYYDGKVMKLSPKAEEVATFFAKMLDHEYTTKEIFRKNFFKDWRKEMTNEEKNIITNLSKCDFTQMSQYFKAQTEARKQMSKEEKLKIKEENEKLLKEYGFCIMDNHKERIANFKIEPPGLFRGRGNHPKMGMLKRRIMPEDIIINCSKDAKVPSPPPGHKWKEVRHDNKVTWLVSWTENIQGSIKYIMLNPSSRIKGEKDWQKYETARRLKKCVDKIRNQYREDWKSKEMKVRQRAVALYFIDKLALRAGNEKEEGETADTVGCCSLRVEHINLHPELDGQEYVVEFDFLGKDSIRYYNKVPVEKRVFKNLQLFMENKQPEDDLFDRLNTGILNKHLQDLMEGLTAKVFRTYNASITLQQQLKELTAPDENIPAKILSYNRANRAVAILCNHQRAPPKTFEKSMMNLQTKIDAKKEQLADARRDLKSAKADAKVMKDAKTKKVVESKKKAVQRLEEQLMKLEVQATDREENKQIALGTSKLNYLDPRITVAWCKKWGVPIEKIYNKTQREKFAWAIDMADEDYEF

[3] = tested on: HCT-116; assay: Cytotoxicity against human HCT116 after 72 hrs by SRB assay; assay type: functional, cell-based; conditions: HCT-116, 72 h
[4] = Stability of the compound assessed as retention of lactone group at pH 7 after 8 hrs in presence of human serum albumin by HPLC analysis; assay type: ADME; conditions: for Stability: buffer, pH 7, 8 h; for remaining at 8 h: human serum albumin solution, pH 7, read-out: Stability
[5] = Stability of the compound assessed as retention of lactone group in phosphate buffer at pH 7 after 8 hrs by HPLC analysis; assay type: physicochemical; conditions: for Stability: buffer, pH 7, 8 h; for remaining at 8 h: phosphate buffer, pH 7, read-out: Stability

| Structure (SMILES) | IC50 [1] [nM] | inhibition [2] | IC50 [3] [nM] | Stability [4] | Stability [5] | remaining at 8 h [4] [%] | remaining at 8 h [5] [%] |
| --- | --- | --- | --- | --- | --- | --- | --- |
| CC[C@@]1(O)C(=O)OCc2c1cc1n(c2=O)Cc2cc3cc(O)ccc3nc2-1 [HYDROXYCAMPTOTHECIN] | 33.6 | Active | 31.2 | – | – | – | – |
| CC[C@]1(O)c2cc3n(c(=O)c2COC(=O)[C@@H]1OC(C)=O)Cc1cc2ccccc2nc1-3 | 49.2 | Active | 14.2 | Stable | Stable | – | – |
| CC[C@@]1(O)C(=O)OCc2c1cc1n(c2=O)Cc2cc3ccccc3nc2-1 [CAMPTOTHECIN] | 33.8 | – | 22.9 | – | – | 20 | < 40 |
| CC[C@]1(O)c2cc3n(c(=O)c2COC(=O)[C@@H]1O)Cc1cc2cc4c(cc2nc1-3)OCCO4 | 2.9 | Active | 3.4 | – | – | – | – |
| CC[C@]1(O)c2cc3n(c(=O)c2COC(=O)[C@@H]1O)Cc1cc2ccccc2nc1-3 | 16.8 | Active | 49.3 | Stable | Stable | – | – |
| CC[C@]1(O)c2cc3n(c(=O)c2COC(=O)[C@@H]1O)Cc1cc2cc(OC)ccc2nc1-3 | 4.8 | Active | 10.6 | – | – | – | – |
| CC[C@]1(O)c2cc3n(c(=O)c2COC(=O)[C@@H]1OC(C)=O)Cc1cc2cc(OC)ccc2nc1-3 | 4.7 | Active | 4.4 | – | – | – | – |
| CC[C@]1(O)c2cc3n(c(=O)c2COC(=O)[C@@H]1OC(C)=O)Cc1cc2cc4c(cc2nc1-3)OCO4 | 1.2 | Active | 2.1 | Stable | Stable | – | – |
| CC[C@]1(O)c2cc3n(c(=O)c2COC(=O)[C@@H]1OC(C)=O)Cc1cc2cc4c(cc2nc1-3)OCCO4 | 4.6 | Active | 4.9 | – | – | 55 | 90 |
| CC[C@]1(O)c2cc3n(c(=O)c2COC(=O)[C@@H]1O)Cc1cc2cc4c(cc2nc1-3)OCO4 | 3.1 | Active | 3.1 | – | – | – | – |
| CCc1c2c(nc3ccc(O)cc13)-c1cc3c(c(=O)n1C2)COC(=O)[C@]3(O)CC | – | Active | – | – | – | – | – |
